The numbers were not newly measured in patent US7351424B2, “Enhanced purity trans-lutein-ester compositions and methods of making same” (Bio Lut S.A. de C.V., priority 2004, dated 2008), which cites them from elsewhere.

For the series the following is noted: human, in vivo.

With lutein esters, the bioavailability entry is reported as “even better than free lutein”.
